Experimental data from article PMC5609566, “Elucidation of antimicrobial activity and mechanism of action by N-substituted carbazole derivatives” (Bioorganic & Medicinal Chemistry Letters, 2017).
In brackets after ≈: the same amount, converted by molar mass.

Tests used:
Format in all cases: cell-based
[1] = system: Candida glabrata ATCC 90030; assay: Fungal growth inhibition MIC (MFC); settings: Nakaseomyces glabratus, ATCC90030, Candida glabrata ATCC 90030 (wild-type); for MIC: RPMI-1640; for MFC: value in brackets
Description: We subsequently assessed the carbazole series for antifungal activity, as described in Kjellerup et al., 2017.[15] Table 2, Table 3, Table 4, Table 5 list the minimum inhibitory concentrations (MIC) and the minimum fungicidal concentrations (MFC) of the fifteen compounds tested against the yeasts Saccharomyces cerevisiae, Candida albicans, C. krusei, and two isolates of C. glabrata (a wild-type strain ATCC 90030 and a clinical azole-resistant isolate Cg003 with increased efflux pump expression[19]), and the molds Aspergillus fumigatus and A. flavus. MIC was defined as the lowest concentration inhibiting visual growth of the microorganism in RPMI-1640 media. […] However, in several cases antifungal activity against molds was minimal, Table 5.
Compound hits from the library screening were evaluated against baker yeast S. cerevisiae and C. albicans (ATCC 90028). The minimum inhibitory concentration (MIC) was defined as the lowest concentration inhibiting visual growth of the microorganism and this was determined in triplicate. Standard errors were typically less than 5%. MICs for synthesized compounds were determined on the following fungal isolates: Saccharomyces cerevisiae (ATCC 9763), Candida albicans (SC5314), Candida krusei (ATCC 6258), Candida glabrata (ATCC 90030), Aspergillus flavus (ATCC MYA-1005) and Aspergillus fumigatus (ATCC 13073), which were purchased from American Type Culture Collection, and C. glabrata strain Cg003, which was kindly provided by Julius Subik, Comenius University in Bratislava, Slovak Republic. Cg003 is a clinical isolate, characterized to be resistant to fluconazole and itraconazole due to overexpression of the multidrug resistance efflux pumps Cdr1p and Cdr2p^5. The fungal growth assay was performed as described in Kjellerup et al., 2017^6.

C. albicans cells = assay: Intracellular ATP determination; settings: compound at 20 µM, 30 minutes, mean ± SEM n = 5
Description: It was subsequently evaluated whether or not the carbazoles were able to prevent extracellular acidification of the surrounding media by blocking the pumping activity of the H^+-ATPase within fungal cells.[15] […] The H^+-ATPase requires ATP to transport protons out of fungal cells. Consequently, a decrease in intracellular ATP (iATP) levels will indirectly affect H^+-ATPase activity. […] In all cases, iATP levels were […] in C. albicans cells exposed to carbazoles compared to the untreated control. […] This implies that the carbazoles need to pass the fungal membrane to inhibit the H^+-ATPase and 7, 18 and 19 may have reduced membrane permeability.
C. albicans cells were transferred to 3 ml of YPD media and grown overnight at 30 °C and 150 rpm. The cells were pelleted at 2000 × g for 2 min. and washed in PBS (Sigma-Aldrich, catalog number 8537) twice before re-suspension to an OD600 of 0.1. Cell suspension (98 µL) and 2 µl compound in DMSO were incubated for 30 minutes at RT. Forty microliters of this suspension was then transferred to a black 96-well plate containing 40 µl BacTiterGlo reagent (Promega, Madison, WI) and the plate was incubated for 15 minutes in the dark at room temperature. Luminescence was read on a SpectraMax X5 (Molecular Devices, Sunnyvale, CA) plate reader with 10 s shake and 0.5 s integration time. A standard curve containing 10, 100 and 1000 nM ATP was prepared for every experiment.

[2] = system: Escherichia coli ATCC 25922; assay: Bacterial growth inhibition assay; settings: ATCC25922; Escherichia coli ATCC 25922, n=3
Description: (§1) To further support the notion that the carbazole H^+-ATPase inhibitors were specific inhibitors of fungal growth, we tested the effect of all fifteen compounds on the growth of two bacterial species; the gram-positive Staphylococcus aureus and the gram-negative Escherichia coli. […] Compound 16 and 17 were interesting as they were potent inhibitors of the ATP hydrolysis in the enzymatic assay and potent H^+-ATPase inhibitors in whole fungal cell assay (iATP and extracellular acidification).
(§2) The bacterial strains used in this study were purchased from DSMZ, Germany. Bacteria cells were grown in Mueller-Hinton broth (MHB) to mid-exponential phase and freeze stocks were prepared at 1-2 × 10^8 CFU/mL in MHB and 20% glycerol and stored at -20 °C. These stocks were used to inoculate bacterial growth assays at a final concentration of 5 × 10^5 CFU/mL in MHB together with 1.5 % DMSO or compound in a 96-well plate and incubated for 16-29 h at 35 °C, whereafter growth was determined by reading at OD600. Kanamycin and ampicillin were used as positive control compounds. Experiments were performed at least twice and standard errors were typically less than 5 %.

[3] = system: Staphylococcus aureus ATCC 29213; assay: Bacterial growth inhibition assay; settings: ATCC29213; Staphylococcus aureus ATCC 29213, n=3
Description: as §1, §2

Row | Compound | MIC [1] [µM] | MFC [1] [µM] | iATP (C. albicans cells) [nM] | MIC [2] [µM] | MIC [3] [µM]
1 | CN1CCN(CC(O)Cn2c3ccc(Cl)cc3c3cc(Cl)ccc32)CC1 (stereo not drawn) [Compound 8, 1-(3,6-dichloro-9H-carbazol-9-yl)-3-(4-methylpiperazin-1-yl)propan-2-ol] | 42 (≈ 16.5 µg/mL) | 75 (≈ 29.4 µg/mL) | 70 ± 25 | 75 (≈ 29.4 µg/mL) | 64 (≈ 25.1 µg/mL)
2 | CN1CCN(CCCn2c3ccc(Cl)cc3c3cc(Cl)ccc32)CC1 [Compound 16, 3,6-dichloro-9-(3-(4-methylpiperazin-1-yl)propyl)-9H-carbazole] | 7.5 (≈ 2.82 µg/mL) | 7.5 (≈ 2.82 µg/mL) | 235 ± 70 | 75 (≈ 28.2 µg/mL) | 24 (≈ 9.03 µg/mL)
3 | Clc1ccc2c(c1)c1cc(Cl)ccc1n2CCCN1CCOCC1 [Compound 18, 4-(3-(3,6-dichloro-9H-carbazol-9-yl)propyl)morpholine] | > 75 | > 75 | – | > 75 | > 75
4 | CN(C)CCCCn1c2ccc(Cl)cc2c2cc(Cl)ccc21 [Compound 15] | 7.5 (≈ 2.51 µg/mL) | 7.5 (≈ 2.51 µg/mL) | 53 ± 10 | 75 (≈ 25.1 µg/mL) | 24 (≈ 8.05 µg/mL)
5 | CCC(C)NCC(O)Cn1c2ccc(Cl)cc2c2cc(Cl)ccc21 (stereo not drawn) [Compound 10, 1-(sec-butylamino)-3-(3,6-dichloro-9H-carbazol-9-yl)propan-2-ol] | 1.2 (≈ 0.438 µg/mL) | 3.8 (≈ 1.39 µg/mL) | 491 ± 79 | 20 (≈ 7.31 µg/mL) | 2.9 (≈ 1.06 µg/mL)
6 | O=C(O)C1CCN(CC(O)Cn2c3ccc(Cl)cc3c3cc(Cl)ccc32)CC1 (stereo not drawn) [Compound 9, 1-(3-(3,6-dichloro-9H-carbazol-9-yl)-2-hydroxypropyl)piperidine-4-carboxylic acid] | > 75 | > 75 | – | > 75 | 75 (≈ 31.6 µg/mL)
7 | OC(Cn1ccnc1)Cn1c2ccc(Cl)cc2c2cc(Cl)ccc21 (stereo not drawn) [Compound 5, 1-(3,6-dichloro-9H-carbazol-9-yl)-3-(1H-imidazol-1-yl)propan-2-ol] | > 75 | > 75 | – | > 75 | 7.5 (≈ 2.7 µg/mL)
8 | OC(Cn1cncn1)Cn1c2ccc(Cl)cc2c2cc(Cl)ccc21 (stereo not drawn) [Compound 6, 1-(3,6-dichloro-9H-carbazol-9-yl)-3-(1H-1,2,4-triazol-1-yl)propan-2-ol] | > 75 | > 75 | – | > 75 | 41 (≈ 14.8 µg/mL)
9 | COc1ccc2c(c1)c1cc(OC)ccc1n2CC(O)CN1CCN(C)CC1 (stereo not drawn) [Compound 11, 1-(3,6-dimethoxy-9H-carbazol-9-yl)-3-(4-methylpiperazin-1-yl)propan-2-ol] | > 75 | > 75 | – | > 75 | > 75
10 | CN1CCN(CC(O)Cn2c3ccc(C#N)cc3c3cc(C#N)ccc32)CC1 (stereo not drawn) [Compound 12, 9-(2-hydroxy-3-(4-methylpiperazin-1-yl)propyl)-9H-carbazole-3,6-dicarbonitrile] | > 75 | > 75 | – | > 75 | > 75
11 | CN1CCN(CC(O)Cn2c3ccc(O)cc3c3cc(O)ccc32)CC1 (stereo not drawn) [Compound 13, 9-(2-hydroxy-3-(4-methylpiperazin-1-yl)propyl)-9H-carbazole-3,6-diol] | > 75 | > 75 | – | > 75 | > 75
12 | OC(CN1CCOCC1)Cn1c2ccc(Cl)cc2c2cc(Cl)ccc21 (stereo not drawn) [Compound 7, 1-(3,6-dichloro-9H-carbazol-9-yl)-3-morpholinopropan-2-ol] | > 75 | > 75 | 93 ± 45 | > 75 | 41 (≈ 15.6 µg/mL)
13 | CN(C)CCCn1c2ccc(Cl)cc2c2cc(Cl)ccc21 [Compound 14, 3-(3,6-dichloro-9H-carbazol-9-yl)-N,N-dimethyl-propan-1-amine] | 24 (≈ 7.71 µg/mL) | 24 (≈ 7.71 µg/mL) | – | 75 (≈ 24.1 µg/mL) | 7.5 (≈ 2.41 µg/mL)
